Molecules are shown by their SMILES.

One test deals with NCIH727 cells. The experiment in a line: Cancer cell line proliferation (CellTiter-Glo), NCI-H727. It counts as cell-based. Conditions: Homo sapiens, 72 h, NCIH727 lung carcinoid, heterozygous G12V. The protocol: Cell lines were cultured essentially according to ATCC recommendations.
SW620 and NCIH727 cells were plated in 384-well tissue culture plates at 1,000 cells/well and incubated at 37° C./5% CO2 for 72 hr in 40 μl of media. […] Each cell line was then treated with test compounds at various concentrations with a final concentration of 0.5% DMSO/well, and then incubated at 37° C./5% CO2 for 72 hr. 40 μl of CellTiter-Glo® Reagent (Promega Corporation, Madison, WI) was added to each well and processed according manufacturer's protocol. Results were analyzed and IC50 values were calculated in GraphPad 8.0 software.
(In ATP-based viability assays light output follows the ATP content of the culture.)
For the compound `C#Cc1c(F)ccc2cc(O)cc(-c3nc(OC)c4c(N5CC6CCC(C5)N6C(=O)C5(C)CC5)nc(OCC5(CN6CC7CC7C6)CC5)nc4c3F)c12` (stereo not shown) [Example 114], the EC50 (commonly the concentration at which the effect is half-maximal) was above 1000 nM.
Still for that read-out and setting: in the case of `C#Cc1c(F)ccc2cc(O)cc(-c3nc(OC)c4c(N5CC6CCC(C5)N6C(=O)[C@H]5C[C@@H]5F)nc(OCC5(CN6CCC(F)CC6)CC5)nc4c3F)c12` [Example 78] it was 100 to 1000 nM.
Still for that read-out and setting: in the case of `C#Cc1c(F)ccc2cc(N)cc(-c3nc(OC)c4c(N5CC6CCC(C5)N6C(=O)C[C@@H](O)C(F)(F)F)nc(OCC5(CN6CC7CC7C6)CC5)nc4c3F)c12` (stereo partly shown) [Example 171] it was 100 to 1000 nM; in that of `C#Cc1c(F)ccc2cc(O)cc(-c3nc(OC)c4c(N5CC6CCC(C5)N6C(=O)C5C[C@H]5C#N)nc(OCC5(CN6CCC(F)CC6)CC5)nc4c3F)c12` (stereo partly shown) [Example 80], below 100 nM; in that of `C#Cc1c(F)ccc2cc(O)cc(-c3nc(OC)c4c(N5CC6CCC(C5)N6C(=O)NC(C)C#N)nc(OCC5(CN6CCC(C(F)(F)F)CC6)CC5)nc4c3F)c12` (stereo not shown) [Example 135], below 100 nM.
On the same count and under the same terms, with `C#Cc1c(F)ccc2cc(O)cc(-c3nc(OC)c4c(N5CC6CCC(C5)N6C(=O)N5CC(C#N)C5)nc(OCC5(CN6CC7CC7C6)CC5)nc4c3F)c12` (stereo not shown) [Example 130] the figure was below 100 nM; with `C#Cc1c(F)ccc2cc(O)cc(-c3nc(OC)c4c(N5CC6CCC(C5)N6C(=O)C5C[C@H]5F)nc(OCC5(CN6CCC(F)CC6)CC5)nc4c3F)c12` (stereo partly shown) [Example 77], below 100 nM.
As for `C#Cc1c(F)ccc2cc(O)cc(-c3nc(OC)c4c(N5CC6CCC(C5)N6C(=O)C5(C(F)(F)F)CC5)nc(OCC5(CN6CC7CC7C6)CC5)nc4c3F)c12` (stereo not shown) [Example 116], the EC50 is above 1000 nM.
Take `C#Cc1c(F)ccc2cc(O)cc(-c3nc(OC)c4c(N5CC6CCC(C5)N6C(=O)NC56CC(C#N)(C5)C6)nc(OCC5(CN6CC7CC7C6)CC5)nc4c3F)c12` (stereo not shown) [Example 194]: the half-maximal effective concentration (EC50) fell in the range of 100 to 1000 nM.
The same measure, in the same setting: with `C#Cc1c(F)ccc2cc(O)cc(-c3nc(OC)c4c(N5CC6CCC(C5)N6C(=O)NCC(O)C(F)(F)F)nc(OCC5(CN6CC7CC7C6)CC5)nc4c3F)c12` (stereo not shown) [Example 187] the figure was 100 to 1000 nM; with `C#Cc1c(F)ccc2cc(O)cc(-c3nc(OC)c4c(N5CC6CCC(C5)N6CC5COC5)nc(OCC5(CN6CCC(F)CC6)CC5)nc4c3F)c12` [Example 70], above 1000 nM.
Same read-out and setting: in the case of `C#Cc1c(F)ccc2cc(O)cc(-c3nc(OC)c4c(N5CC6CCC(C5)N6C(=O)CCN(C)C)nc(OCC5(CN6CC7CC7C6)CC5)nc4c3F)c12` (stereo not shown) [Example 107] it was above 1000 nM; in that of `C#Cc1c(F)ccc2cc(O)cc(-c3nc(OC)c4c(N5CC6CCC(C5)N6C(C)=O)nc(OCC5(CN6CC7CC7C6)CC5)nc4c3F)c12` (stereo not shown) [Example 120], 100 to 1000 nM; in that of `C#Cc1c(F)ccc2cc(O)cc(-c3nc(OC)c4c(N5CC6CCC(C5)N6C(=N)NCC(F)(F)F)nc(OCC5(CN6CCC(F)CC6)CC5)nc4c3F)c12` [Example 85], above 1000 nM.
Compound `C#Cc1c(F)ccc2cc(O)cc(-c3nc(OC)c4c(N5CC6CCC(C5)N6C(=O)NC(C#N)C5CC5)nc(OCC5(CN6CC7CC7C6)CC5)nc4c3F)c12` (stereo not shown) [Example 192] returned a concentration for a half-maximal effect (EC50) of 100 to 1000 nM.
Same read-out and setting: with `C#Cc1c(F)ccc2cc(O)cc(-c3nc(OC)c4c(N5CC6CCC(C5)N6C(=O)N(C)CC(F)(F)F)nc(OCC5(CN6CC7CC7C6)CC5)nc4c3F)c12` (stereo not shown) [Example 159] the figure was 100 to 1000 nM; with `C#Cc1c(F)ccc2cc(O)cc(-c3nc(OC)c4c(N5CC6CCC(C5)N6C(=O)C5C6CCOC65)nc(OCC5(CN6CC7CC7C6)CC5)nc4c3F)c12` (stereo not shown) [Example 155], below 100 nM; with `C#Cc1c(F)ccc2cc(O)cc(-c3nc(OC)c4c(N5CC6CCC(C5)N6C(=O)OC(C)(C)C#N)nc(OCC5(CN6CC7CC7C6)CC5)nc4c3F)c12` (stereo not shown) [Example 111], below 100 nM.
With `C#Cc1c(F)ccc2cc(O)cc(-c3nc(OC)c4c(N5CC6CCC(C5)N6C(=O)NC56CC(C(F)(F)F)(C5)C6)nc(OCC5(CN6CC7CC7C6)CC5)nc4c3F)c12` (stereo not shown) [Example 184], the EC50 was in the range of 100 to 1000 nM.
For the compound `C#Cc1c(F)ccc2cc(O)cc(-c3nc(OC)c4c(N5CC6CCC(C5)N6C(=O)NC5COC5)nc(OCC5(CN6CC7CC7C6)CC5)nc4c3F)c12` (stereo not shown) [Example 199], the EC50 is below 100 nM.
The same measure, in the same setting: in the case of `C#Cc1c(F)ccc2cc(O)cc(-c3nc(OC)c4c(N5CC6CCC(C5)N6C(=O)OCC)nc(OCC5(CN6CC7CC7C6)CC5)nc4c3F)c12` (stereo not shown) [Example 164] it was 100 to 1000 nM.
Still for that read-out and setting: with `C#Cc1c(F)ccc2cc(O)cc(-c3nc(OC)c4c(N5CC6CCC(C5)N6C(=O)CC[N+](=O)[O-])nc(OCC5(CN6CC7CC7C6)CC5)nc4c3F)c12` (stereo not shown) [Example 128] the figure was 100 to 1000 nM; with `C#Cc1c(F)ccc2cc(O)cc(-c3nc(OC)c4c(N5CC6CCC(C5)N6C(=O)NCC)nc(OCC5(CN6CC7CC7C6)CC5)nc4c3F)c12` (stereo not shown) [Example 144], 100 to 1000 nM; with `C#Cc1c(F)ccc2cc(O)cc(-c3nc(OC)c4c(N5CC6CCC(C5)N6C(=O)NC5CC(F)C5)nc(OCC5(CN6CCC(F)CC6)CC5)nc4c3F)c12` (stereo not shown) [Example 91], below 100 nM.
Still for that read-out and setting: in the case of `C#Cc1c(F)ccc2cc(O)cc(-c3nc(OC)c4c(N5CC6CCC(C5)N6C(=O)C[C@H](O)C(F)(F)F)nc(OCC5(CN6CC7CC7C6)CC5)nc4c3F)c12` (stereo partly shown) [Example 180] it was 100 to 1000 nM.
`C#Cc1c(F)ccc2cc(O)cc(-c3nc(OC)c4c(N5CC6CCC(C5)N6C(=O)NC5CC[C@@H](F)C5)nc(OCC5(CN6CCC(F)CC6)CC5)nc4c3F)c12` (stereo partly shown) [Example 87]: the 50% effective concentration (EC50) fell in the range of 100 to 1000 nM.
Still for that read-out and setting: in the case of `C#Cc1c(F)ccc2cc(O)cc(-c3nc(OC)c4c(N5CC6CCC(C5)N6C(=O)NCC(F)(F)CO)nc(OCC5(CN6CCC(F)CC6)CC5)nc4c3F)c12` [Example 76] it was 100 to 1000 nM; in that of `C#Cc1c(F)ccc2cc(O)cc(-c3nc(OC)c4c(N5CC6CCC(C5)N6C(=O)N[C@@H]5CCC[C@@H]5C#N)nc(OCC5(CN6CC7CC7C6)CC5)nc4c3F)c12` (stereo partly shown) [Example 195], 100 to 1000 nM.
On the same count and under the same terms, in the case of `C#Cc1c(F)ccc2cc(O)cc(-c3nc(C#C)c4c(N5CC6CCC(C5)N6C(=O)CCC#N)nc(OCC5(CN6CCC(F)CC6)CC5)nc4c3F)c12` [Example 103] it was 100 to 1000 nM; in that of `C#Cc1c(F)ccc2cc(O)cc(-c3nc(OC)c4c(N5CC6CCC(C5)N6C(C)C)nc(OCC5(CN6CC7CC7C6)CC5)nc4c3F)c12` (stereo not shown) [Example 121], above 1000 nM; in that of `C#Cc1c(F)ccc2cc(O)cc(-c3nc(OC)c4c(N5CC6CCC(C5)N6C(=O)COC(F)(F)F)nc(OCC5(CN6CC7CC7C6)CC5)nc4c3F)c12` (stereo not shown) [Example 138], 100 to 1000 nM.
As to `C#Cc1c(F)ccc2cc(O)cc(-c3nc(OC)c4c(N5CC6CCC(C5)N6C(=O)NC56CC(F)(C5)C6)nc(OCC5(CN6CC7CC7C6)CC5)nc4c3F)c12` (stereo not shown) [Example 183], the EC50 was below 100 nM.
Same read-out and setting: with `C#Cc1c(F)ccc2cc(O)cc(-c3nc(OC)c4c(N5CC6CCC(C5)N6C(=O)C(C)(C#N)CC#N)nc(OCC5(CN6CC7CC7C6)CC5)nc4c3F)c12` (stereo not shown) [Example 139] the figure was 100 to 1000 nM; with `C#Cc1c(F)ccc2cc(O)cc(-c3nc(OC)c4c(N5CC6CCC(C5)N6C(=O)NC(C)C#N)nc(OCC5(CN6CCC(C#N)CC6)CC5)nc4c3F)c12` (stereo not shown) [Example 134], below 100 nM; with `C#Cc1c(F)ccc2cc(O)cc(-c3nc(OC)c4c(N5CC6CCC(C5)N6C(=O)C5CC(F)(F)CO5)nc(OCC5(CN6CC7CC7C6)CC5)nc4c3F)c12` (stereo not shown) [Example 154], 100 to 1000 nM.
On the same count and under the same terms, with `C#Cc1c(F)ccc2cc(O)cc(-c3nc(OC)c4c(N5CC6CCC(C5)N6C(=O)CCCC#N)nc(OCC5(CN6CC7CC7C6)CC5)nc4c3F)c12` (stereo not shown) [Example 113] the figure was 100 to 1000 nM; with `C#Cc1c(F)ccc2cc(O)cc(-c3nc(OC)c4c(N5CC6CCC(C5)N6C(=O)N5CC(OC(F)(F)F)C5)nc(OCC5(CN6CC7CC7C6)CC5)nc4c3F)c12` (stereo not shown) [Example 175], 100 to 1000 nM.
With `C#Cc1c(F)ccc2cc(O)cc(-c3nc(OC)c4c(N5CC6CCC(C5)N6C(=O)Nc5ccc6c(c5)CCO6)nc(OCC5(CN6CCC(F)CC6)CC5)nc4c3F)c12` [Example 97], the EC50 is 100 to 1000 nM.
Still for that read-out and setting: in the case of `C#Cc1c(F)ccc2cc(O)cc(-c3nc(OC)c4c(N5CC6CCC(C5)N6C(=O)C(C#N)CC)nc(OCC5(CN6CC7CC7C6)CC5)nc4c3F)c12` (stereo not shown) [Example 126] it was 100 to 1000 nM; in that of `C#Cc1c(F)ccc2cc(O)cc(-c3nc(OC)c4c(N5CC6CCC(C5)N6C(=O)N5CC6CC6C5)nc(OCC5(CN6CC7CC7C6)CC5)nc4c3F)c12` (stereo not shown) [Example 143], 100 to 1000 nM; in that of `C#Cc1c(F)ccc2cc(O)cc(-c3nc(OC)c4c(N5CC6CCC(C5)N6C(=O)C5(C#N)CC5)nc(OCC5(CN6CC7CC7C6)CC5)nc4c3F)c12` (stereo not shown) [Example 115], 100 to 1000 nM.
The same measure, in the same setting: with `C#Cc1c(F)ccc2cc(O)cc(-c3nc(OC)c4c(N5CC6CCC(C5)N6C(=O)N[C@H](C)C(F)(F)F)nc(OCC5(CN6CC7CC7C6)CC5)nc4c3F)c12` (stereo partly shown) [Example 188] the figure was 100 to 1000 nM.
Same read-out and setting: in the case of `C#Cc1c(F)ccc2cc(O)cc(-c3nc(OC)c4c(N5CC6CCC(C5)N6C(=O)N[C@H]5C[C@H](C#N)C5)nc(OCC5(CN6CC7CC7C6)CC5)nc4c3F)c12` (stereo partly shown) [Example 191] it was 100 to 1000 nM.

Staying with this test, now noted: Homo sapiens, NCIH727 lung carcinoid, heterozygous G12V, 72 hr.
With `C#Cc1c(F)ccc2cc(O)cc(-c3nc(OC)c4c(N5CC6CCC(C5)N6C(=O)OCC(F)(F)F)nc(OCC5(CN6CC7CC7C6)CC5)nc4c3F)c12` (stereo not shown) [Example 162], the concentration for a half-maximal effect (EC50) lay in the range of 100 to 1000 nM.

Still in this test, the particulars now being: NCIH727 lung carcinoid, heterozygous G12V, 72 hr.
Compound `C#Cc1c(F)ccc2cc(O)cc(-c3nc(OC)c4c(N5CC6CCC(C5)N6C(=O)C5C[C@H]5C#N)nc(OCC5(CN6CCC(F)CC6)CC5)nc4c3F)c12` (stereo partly shown) [Example 83] had an EC50 of 100 to 1000 nM.
Still for that read-out and setting: with `C#Cc1c(F)ccc2cc(O)cc(-c3nc(OC)c4c(N5CC6CCC(C5)N6C(=O)C5C[C@H]5C#N)nc(OCC5(CN6CCC(F)CC6)CC5)nc4c3F)c12` (stereo partly shown) [Example 84] the figure was below 100 nM.

These data come from patent US20260200946A1, “KRAS(G12V) INHIBITORS” (Ranok Therapeutics (Hangzhou) Co. Ltd., priority 2022, published 2026).
